According to PubChem BioAssay AID192 (DTP/NCI, 2004):
“And” between values parts separate entries of the source, which are not always exact repeats. Equal values may be shown once. Toxic doses and inconclusive results are not listed.

System: BDF1 mice, B16 melanoma ip, median survival T/C
Assay: NCI In Vivo Anticancer Drug Screen. Data for tumor model B16 Melanoma (intraperitoneal) in B6D2F1 (BDF1) mice
Conditions: endpoint: median survival time, higher = longer survival
Procedure, shortened: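 Mice with transplantable tumors; drug vs vehicle groups; endpoint survival or tumor size; value = T/C.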

[1] = dose: 6.0 mg/kg/injection, schedule: Q01DX009 (ip), vehicle: saline with Tween-80

## COc1cccc2c1C(=O)c1c(O)c3c(c(O)c1C2=O)C[C@@](O)(/C(C)=N/NC(=O)c1ccccc1)C[C@@H]3OC1CC(N)C(O)C(C)O1 (stereo partly specified)
dose: 0.5 mg/kg/injection, schedule: Q01DX009 (ip), vehicle: water
  T/C: 118 % of control
dose: 0.75 mg/kg/injection, schedule: Q01DX009 (ip), vehicle: saline
  T/C: 156 % of control
dose: 1.5 mg/kg/injection, schedule: Q01DX009 (ip), vehicle: saline
  T/C: 156 % of control and 167 % of control and 202 % of control
dose: 2.0 mg/kg/injection, schedule: Q01DX001 (ip), vehicle: water
  T/C: 158 % of control and 165 % of control
dose: 2.0 mg/kg/injection, schedule: Q01DX009 (ip), vehicle: water
  T/C: 181 % of control
dose: 3.0 mg/kg/injection, schedule: Q01DX009 (ip), vehicle: saline
  T/C: 186 % of control and 200 % of control and 226 % of control
dose: 3.0 mg/kg/injection, schedule: Q04DX003 (ip), vehicle: saline
  T/C: 165 % of control and 172 % of control
dose: 4.0 mg/kg/injection, schedule: Q01DX001 (ip), vehicle: water
  T/C: 161 % of control and 162 % of control and 202 % of control
dose: 4.0 mg/kg/injection, schedule: Q01DX009 (ip), vehicle: water
  T/C: 172 % of control
dose: 6.0 mg/kg/injection, schedule: Q01DX009 (ip), vehicle: saline
  T/C: 191 % of control and 202 % of control and 272 % of control
dose: 6.0 mg/kg/injection, schedule: Q04DX003 (ip), vehicle: saline
  T/C: 161 % of control and 193 % of control and 260 % of control
dose: 8.0 mg/kg/injection, schedule: Q01DX001 (ip), vehicle: water
  T/C: 186 % of control and 211 % of control and 275 % of control
dose: 8.0 mg/kg/injection, schedule: Q01DX009 (ip), vehicle: water
  T/C: 245 % of control
dose: 12.0 mg/kg/injection, schedule: Q04DX003 (ip), vehicle: saline
  T/C: 155 % of control and 215 % of control and 260 % of control
dose: 16.0 mg/kg/injection, schedule: Q01DX001 (ip), vehicle: water
  T/C: 178 % of control and 282 % of control and 287 % of control

## C=C1C(=O)O[C@@H]2/C=C(/C)[C@@]3(O)C=C[C@](C)(C[C@@H](OC(=O)/C(=C\C)COC(C)=O)[C@@H]12)O3
dose: 0.03 mg/kg/injection, schedule: Q01DX009 (ip), vehicle: carboxymethylcellulose (CMC)
  T/C: 99 % of control
dose: 0.12 mg/kg/injection, schedule: Q01DX009 (ip), vehicle: carboxymethylcellulose (CMC)
  T/C: 102 % of control
dose: 0.25 mg/kg/injection, schedule: Q01DX009 (ip), vehicle: carboxymethylcellulose (CMC)
  T/C: 97 % of control
[1]
  T/C: 99 % of control
dose: 8.0 mg/kg/injection, schedule: Q01DX009 (ip), vehicle: saline with Tween-80
  T/C: 105 % of control
dose: 12.0 mg/kg/injection, schedule: Q01DX009 (ip), vehicle: saline with Tween-80
  T/C: 109 % of control
dose: 18.0 mg/kg/injection, schedule: Q01DX009 (ip), vehicle: saline with Tween-80
  T/C: 92 % of control

## CCCCCCCCCCCCc1ccc(CS)cc1
dose: 100.0 mg/kg/injection, schedule: Q01DX009 (ip), vehicle: saline
  T/C: 92 % of control
dose: 200.0 mg/kg/injection, schedule: Q01DX009 (ip), vehicle: saline
  T/C: 89 % of control

## Cn1c(=O)c2[nH]c(Cc3cccc(O)c3)nc2n(C)c1=O
dose: 3.12 mg/kg/injection, schedule: Q01DX009 (ip), vehicle: suspension in saline
  T/C: 94 % of control
dose: 6.25 mg/kg/injection, schedule: Q01DX009 (ip), vehicle: suspension in saline
  T/C: 96 % of control
dose: 100.0 mg/kg/injection, schedule: Q01DX009 (ip), vehicle: suspension in saline
  T/C: 94 % of control

## O=C(CC(=Nc1ccccc1)c1ccccc1)c1ccccc1.O=C(CC(=Nc1ccccc1)c1ccccc1)c1ccccc1.[Cu]
dose: 6.25 mg/kg/injection, schedule: Q04DX003 (ip), vehicle: saline with Tween-80
  T/C: 93 % of control
dose: 12.5 mg/kg/injection, schedule: Q04DX003 (ip), vehicle: saline with Tween-80
  T/C: 86 % of control
dose: 25.0 mg/kg/injection, schedule: Q04DX003 (ip), vehicle: saline with Tween-80
  T/C: 91 % of control

## CC1(C)N=C(N)N=C(N)N1c1ccc(CCc2ccccc2)cc1
dose: 0.75 mg/kg/injection, schedule: Q01DX009 (ip), vehicle: saline with Tween-80
  T/C: 97 % of control
dose: 1.5 mg/kg/injection, schedule: Q01DX009 (ip), vehicle: saline with Tween-80
  T/C: 100 % of control
dose: 3.0 mg/kg/injection, schedule: Q01DX009 (ip), vehicle: saline with Tween-80
  T/C: 102 % of control
[1]
  T/C: 95 % of control

## O=C(O)c1cc2ccccc2o1
dose: 16.5 mg/kg/injection, schedule: Q01DX009 (ip), vehicle: saline with Tween-80
  T/C: 100 % of control
dose: 25.0 mg/kg/injection, schedule: Q01DX009 (ip), vehicle: saline with Tween-80
  T/C: 100 % of control
dose: 37.5 mg/kg/injection, schedule: Q01DX009 (ip), vehicle: saline with Tween-80
  T/C: 92 % of control
dose: 50.0 mg/kg/injection, schedule: Q01DX009 (ip), vehicle: saline with Tween-80
  T/C: 111 % of control
dose: 100.0 mg/kg/injection, schedule: Q01DX009 (ip), vehicle: saline with Tween-80
  T/C: 102 % of control

## COc1cc2c(c(OC)c1OC)-c1ccc(OC)c(=O)cc1C(NC(=O)COc1ccccc1)CC2 (stereo unspecified)
dose: 1.25 mg/kg/injection, schedule: Q01DX009 (ip), vehicle: Klucel (hydroxypropylcellulose) (HPC)
  T/C: 175 % of control
dose: 2.5 mg/kg/injection, schedule: Q01DX009 (ip), vehicle: Klucel (hydroxypropylcellulose) (HPC)
  T/C: 188 % of control
